Data as given in patent US9695155B2, “Herbicidal substituted pyrimidinyloxy benzene compounds” (E. I. DU PONT DE NEMOURS AND COMPANY, priority 2013, dated 2017).

Key:
[1] = test system: wild oat; experiment: Test C postemergence; type: in vivo, Avena fatua; details: Avena fatua, post-emergence
Method in brief: (§1)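 Seeds are planted in blended loam soil and sand and treated preemergence, while seedlings in a peat moss/vermiculite medium receive postemergence sprays at 2 to 18 cm height. All plants stay in the greenhouse for 13 to 15 days before visual comparison with controls on a 0–100 scale.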

[2] = test system: yellow nutsedge; experiment: Test C preemergence; type: in vivo, Cyperus esculentus; details: Cyperus, pre-emergence, preemergence, read-out: Nutsedge, Yellow plant response rating
Method in brief: as §1

[3] = test system: ragweed; experiment: Test C postemergence; type: in vivo, Ambrosia elatior; details: Ambrosia artemisiifolia, post-emergence
Method in brief: as §1

[4] = test system: pigweed; experiment: Test C postemergence; type: in vivo, Amaranthus retroflexus; details: Amaranthus retroflexus, post-emergence
Method in brief: as §1

[5] = test system: lambsquarters; experiment: Test C postemergence; type: in vivo, Chenopodium album; details: Chenopodium album, post-emergence
Method in brief: as §1

[6] = test system: giant foxtail; experiment: Test A preemergence; type: in vivo, Setaria faberii; details: Setaria faberi, pre-emergence, 240 h, 0 to 100 scale where 0 is no effect and 100 is complete control
Method in brief: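 Visual injury scored 0–100 (100 = complete control) against untreated controls about 10 days after treatment in a greenhouse. Test chemicals, formulated with surfactant in non-phytotoxic solvent, were sprayed on soil preemergence or on 2-10 cm, one- to two-leaf plants postemergence.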

[7] = test system: Italian ryegrass; experiment: Test C postemergence; type: in vivo, Lolium multiflorum; details: Lolium multiflorum, post-emergence
Method in brief: as §1

[8] = test system: wheat, winter; experiment: Test C postemergence; type: in vivo, Triticum aestivum; details: Triticum aestivum, post-emergence
Method in brief: as §1

[9] = test system: rice; experiment: Test B flooded paddy test; type: in vivo, Oryza sativa; details: Oryza sativa; Flood, 250 g ai/ha; 0 to 100 scale where 0 is no effect and 100 is complete control; read-out: Plant response rating, Rice
Method in brief: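 Seedlings are raised to two leaves, flooded to a depth of 3 cm and dosed by adding the compound to the floodwater. Water level is kept constant, and plants are scored visually versus controls 13–15 days later (0 = no effect, 100 = complete control).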

[10] = test system: pigweed; experiment: Test C preemergence; type: in vivo, Amaranthus retroflexus; details: Amaranthus retroflexus, pre-emergence, preemergence, read-out: Pigweed plant response rating
Method in brief: as §1

[11] = test system: blackgrass; experiment: Test C postemergence; type: in vivo, Alopecurus myosuroides; details: Alopecurus myosuroides, post-emergence
Method in brief: as §1

[12] = test system: velvetleaf; experiment: Test C preemergence; type: in vivo, Abutilon theophrasti; details: Abutilon theophrasti, pre-emergence, preemergence, read-out: Velvetleaf plant response rating
Method in brief: as §1

[13] = test system: soybean; experiment: Test C preemergence; type: in vivo, Glycine max; details: Glycine max, pre-emergence, preemergence, read-out: Soybean plant response rating
Method in brief: as §1

[14] = test system: yellow nutsedge; experiment: Test C postemergence; type: in vivo, Cyperus esculentus; details: Cyperus, post-emergence
Method in brief: as §1

[15] = 16 g ai/ha, scale 0 to 100 (0 no effect, 100 complete control)
[16] = 62 g ai/ha, scale 0 (no effect) to 100 (complete control)
[17] = 125 g ai/ha, scale 0 (no effect) to 100 (complete control)

FC(F)(F)COc1cnn(-c2ccccc2Oc2ncc(Cl)cn2)c1 [Compound 138, 5-chloro-2-[2-[4-(2,2,2-trifluoroethoxy)-1H-pyrazol-1-yl]phenoxy]pyrimidine]
pest or weed control at 16 g/ha ([1]; 16 g ai/ha, postemergence, 0 is no effect, 100 is complete control, read-out: Plant response rating (0 to 100), Oat, Wild): 5%
pest or weed control at 125 g/ha ([1]; 125 g ai/ha, postemergence, visual rating, scale 0 to 100 (0 no effect, 100 complete control), read-out: Plant response rating, Oat, Wild): 10%
pest or weed control at 62 g/ha ([1]; Postemergence, 62 g ai/ha, scale 0 to 100 (0 no effect, 100 complete control), read-out: Plant response rating, Oat, Wild): 5%
pest or weed control at 16 g/ha [2, 15]: 5%
pest or weed control at 62 g/ha [2, 16]: 25%
pest or weed control at 125 g/ha [2, 17]: 55%
pest or weed control at 16 g/ha ([3]; 16 g ai/ha, postemergence, 0 is no effect, 100 is complete control, read-out: Plant response rating (0 to 100), Ragweed): 40%
pest or weed control at 125 g/ha ([3]; 125 g ai/ha, postemergence, visual rating, scale 0 to 100 (0 no effect, 100 complete control), read-out: Plant response rating, Ragweed): 45%
pest or weed control at 62 g/ha ([3]; Postemergence, 62 g ai/ha, scale 0 to 100 (0 no effect, 100 complete control), read-out: Plant response rating, Ragweed): 40%
pest or weed control at 16 g/ha ([4]; 16 g ai/ha, postemergence, 0 is no effect, 100 is complete control, read-out: Plant response rating (0 to 100), Pigweed): 60%
pest or weed control at 125 g/ha ([4]; 125 g ai/ha, postemergence, visual rating, scale 0 to 100 (0 no effect, 100 complete control), read-out: Plant response rating, Pigweed): 80%
pest or weed control at 62 g/ha ([4]; Postemergence, 62 g ai/ha, scale 0 to 100 (0 no effect, 100 complete control), read-out: Plant response rating, Pigweed): 80%
pest or weed control at 16 g/ha ([5]; 16 g ai/ha, postemergence, 0 is no effect, 100 is complete control, read-out: Plant response rating (0 to 100), Lambsquarters): 20%
pest or weed control at 125 g/ha ([5]; 125 g ai/ha, postemergence, visual rating, scale 0 to 100 (0 no effect, 100 complete control), read-out: Plant response rating, Lambsquarters): 75%
pest or weed control at 62 g/ha ([5]; Postemergence, 62 g ai/ha, scale 0 to 100 (0 no effect, 100 complete control), read-out: Plant response rating, Lambsquarters): 60%
pest or weed control at 125 g/ha ([6]; 125 g ai/ha, read-out: Plant response rating, Foxtail, Giant): 90%
pest or weed control at 500 g/ha ([6]; 500 g ai/ha, read-out: Foxtail, Giant plant response rating): 100%
pest or weed control at 16 g/ha ([7]; 16 g ai/ha, postemergence, 0 is no effect, 100 is complete control, read-out: Plant response rating (0 to 100), Ryegrass, Italian): 0%
pest or weed control at 125 g/ha ([7]; 125 g ai/ha, postemergence, visual rating, scale 0 to 100 (0 no effect, 100 complete control), read-out: Plant response rating, Ryegrass, Italian): 5%
pest or weed control at 62 g/ha ([7]; Postemergence, 62 g ai/ha, scale 0 to 100 (0 no effect, 100 complete control), read-out: Plant response rating, Ryegrass, Italian): 0%
plant injury at 16 g/ha ([8]; 16 g ai/ha, postemergence, 0 is no effect, 100 is complete control, read-out: Plant response rating (0 to 100), Wheat): 0%
plant injury at 125 g/ha ([8]; 125 g ai/ha, postemergence, visual rating, scale 0 to 100 (0 no effect, 100 complete control), read-out: Plant response rating, Wheat): 5%
plant injury at 62 g/ha ([8]; Postemergence, 62 g ai/ha, scale 0 to 100 (0 no effect, 100 complete control), read-out: Plant response rating, Wheat): 0%
plant injury at 250 g/ha [9]: 0%
pest or weed control at 16 g/ha [10, 15]: 85%
pest or weed control at 62 g/ha [10, 16]: 100%
pest or weed control at 125 g/ha [10, 17]: 100%
pest or weed control at 16 g/ha ([11]; 16 g ai/ha, postemergence, 0 is no effect, 100 is complete control, read-out: Plant response rating (0 to 100), Blackgrass): 0%
pest or weed control at 125 g/ha ([11]; 125 g ai/ha, postemergence, visual rating, scale 0 to 100 (0 no effect, 100 complete control), read-out: Plant response rating, Blackgrass): 10%
pest or weed control at 31 g/ha ([11]; Postemergence, 31 g ai/ha, scale 0 to 100 (0 no effect, 100 complete control), 13 to 15 days, read-out: Plant response rating, Blackgrass): 5%
pest or weed control at 62 g/ha ([11]; Postemergence, 62 g ai/ha, scale 0 to 100 (0 no effect, 100 complete control), read-out: Plant response rating, Blackgrass): 5%
pest or weed control at 16 g/ha [12, 15]: 60%
pest or weed control at 62 g/ha [12, 16]: 98%
pest or weed control at 125 g/ha [12, 17]: 100%
plant injury at 16 g/ha [13, 15]: 20%
plant injury at 62 g/ha [13, 16]: 90%
plant injury at 125 g/ha [13, 17]: 90%
pest or weed control at 16 g/ha ([14]; 16 g ai/ha, postemergence, 0 is no effect, 100 is complete control, read-out: Plant response rating (0 to 100), Nutsedge, Yellow): 0%
pest or weed control at 125 g/ha ([14]; 125 g ai/ha, postemergence, visual rating, scale 0 to 100 (0 no effect, 100 complete control), read-out: Plant response rating, Nutsedge, Yellow): 10%
pest or weed control at 62 g/ha ([14]; Postemergence, 62 g ai/ha, scale 0 to 100 (0 no effect, 100 complete control), read-out: Plant response rating, Nutsedge, Yellow): 5%
